The assay addresses T1, human leukocyte elastase (Homo sapiens, UniProt P08246).
T1 sequence (P08246 30-267): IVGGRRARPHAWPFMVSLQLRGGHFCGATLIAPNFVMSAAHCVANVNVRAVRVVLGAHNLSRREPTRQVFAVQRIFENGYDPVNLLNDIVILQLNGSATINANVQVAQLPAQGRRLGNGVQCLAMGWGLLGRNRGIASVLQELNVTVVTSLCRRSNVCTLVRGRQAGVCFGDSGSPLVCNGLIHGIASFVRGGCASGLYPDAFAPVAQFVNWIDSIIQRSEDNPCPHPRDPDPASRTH
Kind of assay: human leukocyte elastase (HLE) inhibition, in vitro, substrate MeOSuc-Ala-Ala-Pro-Val-pNA. Format: biochemical. The following applies: pH 7.8 at 25° C., absorbance at 410 nm, read-out: Ki, human leukocyte elastase inhibitory activity. The method, then:
The test compound (inhibitor) is dissolved in DMSO in a vial to produce an inhibitor stock solution which has a concentration in the range of 200-1000 μM. The inhibitor stock solution is diluted (1:4, 1:16 and 1:64) into assay vials (vials 1, 2 and 3 respectively) containing 2.4 mL of buffer solution (50 mM N- 2-hydroxyethyl!piperazine-N'- 2-ethanesulfonic acid!/NaOH, 500 mM NaCl, pH 7.8 at 25° C.) and DMSO is added so that the total volume in each vial is 3.2 mL. 70 μL, 50 μL, 35 μL and 25 μL of inhibitor from assay vial 1 is placed into the first four wells of a 96-well microtiter plate and each well is made up to 90 μL total volume with the addition of a 25% DMSO/buffer solution. […]
The 96-well microtiter plate is placed into a Microplate Reader #89815A spectrophotometer and 110 BL of the enzyme solution (prepared as follows: a mixture of 20 mL of buffer solution and 20 mg of bovine serum albumen is gently vortexed in a scintillation vial and 5 BL HLE stock solution (1 mg/mL dissolved in deionized water) is added) is added simultaneously to each of the 16 wells. Each of the solutions in the wells is throughly mixed and then the time-dependent absorbance data is collected at an absorbance of 410 nm until the assay is complete. […]
A plot of the absorbance versus time data thus obtained affords progress curves the final slope of which is equal to the final steady-state velocities (VF). […]

For 1 compound, Ki results are on record in patent publication US5512576A, “2-substituted 1,2,5,-thiadiazolidin-3-one 1,1-dioxides and compositions and method of use thereof” (Sterling Winthrop Inc., priority 1994, dated 1996).

Molecules are shown by their SMILES.

By Ki is commonly meant a measure of affinity in units of concentration, obtained from inhibition or displacement.

As for `CC(C)CCC1C(=O)N(COc2cc(=O)n3ccccc3n2)S(=O)(=O)N1C` (stereo not shown) [Example 1(j), 2-(4-oxo-4-H-pyrido 1,2-a!pyrimidin-2-yl-oxymethyl)-4-(3-methylbutyl)-5-methyl-1,2,5-thiadiazolidin-3-one 1,1-dioxide], the Ki is 0.79 nM.
